# Data published in patent US20200384001A1, “COMPOSITION FOR PREVENTION OR TREATMENT OF NEUROINFLAMMATORY DISEASE, CONTAINING PROTEIN TYROSINE PHOSPHATASE” (KYUNGPOOK NATIONAL UNIVERSITY INDUSTRY - ACADEMIC …, priority 2015, published 2020).
# Tests used:
# BV2 microglia [1] = test: LPS-induced NO production in BV2 microglial cell line (Griess reaction); type: cell-based; settings: for LPS-induced NO production: BV2, Src kinase inhibitor PP2 (5 μM) or PDTC (FIG. 18)
# Experimental: Since the production of NO (nitric oxide) is a strong marker of inflammatory response in microglia, the effect of PTP1B on LPS-induced NO production was investigated through the Griess reaction. The production of NO was measured using the amount of nitrite. Naive microglia or microglia overexpressing PTP1B were treated with LPS (originated from E. coli 055: B5; Sigma). FIG. 6 illustrates the result of treatment with a BV2 microglial cell line at the indicated dose of LPS. FIG. 7 illustrates the results of treating a BV2 microglial cell line with 100 ng LPS at the indicated time. 24 hours after incubation, 5 μl the cell culture media was mixed with Griess reagent with the same volume (0.1% naphthylethylenediamine dihydrochloride and 1% sulfanylamine in 5% phosphoric acid) in a 96-well microtiter plate. Absorbance was read at 540 nm and sodium nitrite was used for standard curve generation.
# In addition, the level of LPS-induced NO production after BV2 treatment with Src kinase inhibitor PP2 (5 μM) or PDTC (Ammonium pyrrolidinedithiocarbamate, NFκB inhibitor) was identified to determine whether Src is associated with LPS-induced microglia activity. This is illustrated in FIG. 18.
# Next, it was determined whether the PTP1B-mediated proinflammatory response was dependent on Src activity in microglia. […] NO levels were measured in the treated BV2 microglia and the results are illustrated in FIG. 19.
# [2] = tested on: microglia (Iba-1 positive cells); test: Iba-1 positive activated microglia in brain of LPS-injected mice (brain inflammation model); type: in vivo, mouse; settings: inhibitor intracerebrally, LPS 5 mg/kg i.p., 48 hours
# Experimental: C57BL/6 mice were injected intracerebrally with vehicle (saline solution containing 0.5% DMSO and 5% propylene glycol) or the PTP inhibitor of Table 2 above (dilution in saline solution containing 5% propylene glycol). LPS (5 mg/kg) was intraperitoneally injected 30 minutes after injection. Mice were sacrificed and the brain was analyzed 48 hours after LPS injection.
# The mouse model was divided into eight experimental groups; Group 1 treated with saline solution and 0.5% DMSO; Group 2 treated with LPS and 0.5% DMSO; Group 3 treated with LPS and PTP1B inhibitor; Group 4 treated with LPS and TC-PTP inhibitor; Group 5 treated with LPS and SHP2 inhibitor; Group 6 treated with LPS and MEG2 inhibitor; Group 7 treated with LPS and LYP inhibitor; and Group 8 treated with LPS and RPTPP inhibitor. The experimental design above is illustrated in FIG. 4A.
# FIG. 4B illustrates the histochemical results of confirming whether the sacrificed mouse brain is morphologically changed by straining the antibody against Iba-1, a marker of microglia.
# In addition, the brains were removed and sectioned, and the hippocampus, cortex and thalamus were stained with an antibody against Iba-1. The results of histochemical confirmation are illustrated in FIG. 4C. The results of graphical representation of the number of Iba-1 positive cells per mm^2 are illustrated in FIG. 4D.
# brain tissues = test: Real-time PCR of TNFα and IL1β expression in brain tissue after LPS and iPTP1B injection; type: in vivo, mouse; settings: real-time PCR 6 hours after injection of LPS (FIG. 23)
# Experimental: The expression level of TNFα and IL1β genes, which are proinflammatory factors, was measured by real-time PCR 6 hours after the injection of LPS, and the results are illustrated in FIG. 23.
# HAPI cells [3] = test: LPS-induced NO production in HAPI rat microglial cell line; type: cell-based; settings: 10 μM iPTP1B 1 hour, LPS 100 ng/ml 24 hours (FIG. 11)
# From the text: NO levels were confirmed in the stimulated rat microglial cell line, HAPI cells.
# HAPI cells [4] = test: TNFα-induced NO production in HAPI rat microglial cell line; type: cell-based; settings: 10 μM iPTP1B 1 hour, TNFα 100 ng/ml 24 hours (FIG. 12)
# From the text: NO levels were identified in the stimulated cells.
# PTP1B = molecular target: T1, PTP1B (Homo sapiens, UniProt P18031); settings: statement without data; inhibitor obtained from Dr. Zhang group; cited from earlier work
# T1 sequence (P18031 1-435): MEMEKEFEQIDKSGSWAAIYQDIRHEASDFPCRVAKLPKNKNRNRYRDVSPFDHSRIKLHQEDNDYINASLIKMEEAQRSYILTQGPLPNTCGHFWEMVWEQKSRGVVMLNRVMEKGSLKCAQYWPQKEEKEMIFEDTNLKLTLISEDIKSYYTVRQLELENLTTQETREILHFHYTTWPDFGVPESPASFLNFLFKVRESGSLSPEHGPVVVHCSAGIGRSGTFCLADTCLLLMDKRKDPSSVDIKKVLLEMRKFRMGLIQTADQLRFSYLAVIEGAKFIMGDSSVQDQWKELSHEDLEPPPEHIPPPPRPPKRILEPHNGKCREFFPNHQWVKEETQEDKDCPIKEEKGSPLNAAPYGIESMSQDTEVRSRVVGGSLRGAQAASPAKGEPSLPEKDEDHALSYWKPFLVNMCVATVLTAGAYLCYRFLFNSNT
# primary microglia = test: LPS-induced NO production in mouse primary microglia; type: cell-based; settings: 5 μM iPTP1B, LPS 50 ng/ml 24 hours (FIG. 10)
# From the text: NO levels were confirmed in the stimulated primary microglia.
# BV2 microglia [5] = test: TNFα protein ELISA in BV2 microglial culture media; type: cell-based; settings: BV2, LPS, 24-hour incubation, ELISA (FIG. 15)
# Experimental: In addition, the level of TNFα protein in the BV2 microglial culture media treated with LPS as described above was confirmed by ELISA. […] After 24-hour incubation, the TNFα levels in the culture media were measured using a rat monoclonal anti-mouse TNFα antibody as the capture antibody and a goat biotinylated polyclonal anti-mouse TNFα antibody as the detection antibody. The measured levels of TNFα protein results are illustrated in FIG. 15.
# BV2 microglia [6] = test: RT-PCR of LPS-induced proinflammatory molecule mRNA in BV2 microglia; type: cell-based; settings: BV2, LPS 100 ng/ml 6 hours, RT-PCR (FIGS. 13, 14)
# From the text: The results are illustrated in FIG. 13.
# Src = test: Phosphorylation of Src at Y527 in brain of LPS-injected inflammatory mouse model; type: in vivo; settings: LPS+iPTP1B or iPTP1B injected into the brain, after 24 hours (FIG. 20)
# Experimental: In addition, in vivo experiments were carried out using an inflammatory mouse model injected with LPS to identify the effect of PTP1B on phosphorylation of Src at Y527 in vivo. […] At this time, total Src and beta-actin were used as a loading control group and Lnc2 was used as a marker of neuroinflammation. The results are illustrated in FIG. 20.
molecule,measurement,setting,value
"N.S=C(S)N1CCCC1 [PDTC, Ammonium pyrrolidinedithiocarbamate]",LPS-induced NO production,BV2 microglia [1],inhibited significantly
CC(C)(C)n1nc(-c2ccc(Cl)cc2)c2c(N)ncnc21 [PP2],dose dependence of inhibition of LPS-induced NO production,"BV2 microglia [1]; BV2, PP2 pretreatment (FIG. 18)",dose-dependent
same,LPS-induced NO production,BV2 microglia [1],inhibited significantly
same,NO levels: effect on the anti-inflammatory effect of iPTP1B,"BV2 microglia [1]; BV2 pretreated with PP2 or iPTP1B 1 hour, LPS 24 hours (FIG. 19)",eliminated the anti-inflammatory effect of iPTP1B
"Cn1c(-c2cccc(NC(=O)CNC(=O)c3cc(Br)cc(I)c3)c2)c(I)c2cc(C(=O)O)c(O)cc21 [RPTPβ inhibitor, 2-(3-(2-(3-bromo-5-iodobenzamido)acetamido)phenyl)-6-hydroxy-3-iodo-1-methyl-1H-indole-5-carboxylic acid]",activation of LPS-induced microglia (Iba-1 positive cells) in the cortex,[2],decrease the activation of LPS-induced microglia
same,activation of LPS-induced microglia (Iba-1 positive cells) in the hippocampus,[2],decrease the activation of LPS-induced microglia
CCc1ccc(C(=O)NCCCC[C@H](NC(=O)[C@H](Cc2ccc(C(F)(F)P(=O)(O)O)cc2)NC(=O)[C@H](Cc2ccccc2)NC(=O)CO[C@@H]2C[C@@H](C)CC[C@@H]2C(C)C)C(N)=O)cc1 [TC-PTP inhibitor],activation of LPS-induced microglia (Iba-1 positive cells) in the cortex,[2],decrease the activation of LPS-induced microglia
((4-((S)-3-(((S)-1-amino-3-(2-(4-hydroxy-3-methoxyphenyl)acetamido)-1-oxopropan-2-yl)amino)-5-(3-iodobenzamido)-1-oxopentan-2-yl)amino)-6-hydroxy-3-iodo-1-methyl-2-(3-(2-oxo-2-((4-thiophen-3-yl)phenyl)amino)acetamido)phenyl)-1H-indole-5-carboxlic acid [SHP2 inhibitor],activation of LPS-induced microglia (Iba-1 positive cells) in the hippocampus,[2],decrease the activation of LPS-induced microglia
(S)-4-(((S)-1-(12-azanyl)-3-(4-(difluoro(phosphono)methyl)phenyl)-1-oxopropan-2-yl)amino)-3-((S)-3-(4-(difluoro(phosphono)methyl)phenyl)-2-pentadecanamidopropanamido)-4-oxobutanoic acid [iPTP1B],expression of IL1β gene in brain,brain tissues,significantly weakened
same,expression of TNFα gene in brain,brain tissues,significantly weakened
same,level of LPS-induced NO,HAPI cells [3],significantly decreased
same,TNFα-induced NO level,HAPI cells [4],significantly decreased
same,level of LPS-induced NO,"BV2 microglia [1]; BV2, different concentrations of iPTP1B, LPS 100 ng/ml (FIG. 9)",dose-dependently decreased
same,"NO production, treatment with inhibitor alone (basic level)","BV2 microglia [1]; BV2, iPTP1B alone without LPS",did not inhibit or increase NO production
same,IC50,"BV2 microglia [1]; BV2, pretreated 1 hour, LPS 100 ng/ml, Griess method (FIG. 9), read-out: IC50 for level of LPS-induced NO",10.3 µM
same,specificity for PTP1B,PTP1B,highly specific to PTP1B
same,level of LPS-induced NO,primary microglia,significantly decreased
same,expression level of TNFα protein in the culture media,BV2 microglia [5],significantly low
same,LPS-induced IL1β mRNA expression,BV2 microglia [6]; 10 M iPTP1B,significantly inhibits
same,LPS-induced TNFα mRNA expression,BV2 microglia [6]; 10 M iPTP1B,significantly inhibits
same,LPS-induced iNOS mRNA expression,BV2 microglia [6]; 10 M iPTP1B,significantly inhibits
same,LPS-induced Cox2 mRNA expression,BV2 microglia [6]; iPTP1B,significantly inhibits
same,phosphorylation of Src at Y527 in vivo,Src,increased phosphorylation of Src at Y527
same,activation of LPS-induced microglia (Iba-1 positive cells) in the cortex,[2],decrease the activation of LPS-induced microglia
same,activation of LPS-induced microglia (Iba-1 positive cells) in the hippocampus,[2],decrease the activation of LPS-induced microglia
